Test results published in ChEMBL document CHEMBL1201862, “PubChem BioAssay data set” (2004).
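Each compound was tested at five concentrations against cells in 96-well plates for 48 hours. At the GI50, growth is halved.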 Active and inactive are the calls of the source. No stated cut-off is given here; in the data, active = GI50 up to about 1.1 µM and inactive = higher.

Key:
Assay in all cases: growth of human tumour cells (NCI), 48 h
[1] = system: CAKI-1
[2] = system: COLO 205
[3] = system: EKVX
[4] = system: HOP-62
[5] = system: HT-29
[6] = system: IGROV-1
[7] = system: LOX IMVI
[8] = system: Malme-3M
[9] = system: NCI-H226
[10] = system: OVCAR-3
[11] = system: OVCAR-5
[12] = system: OVCAR-8
[13] = system: RXF 393
[14] = system: SK-MEL-5
[15] = system: SW-620
[16] = system: U-251
[17] = system: UACC-257
[18] = system: UO-31
[19] = system: SF-295
[20] = system: UACC-62

Measured: GI50

O=c1cnn(CCOCP(=O)(O)O)c(=O)[nH]1
inactive: [1] > 100 µM | [2] > 100 µM | [3] > 100 µM | [4] > 100 µM | [5] > 100 µM | [6] > 100 µM | [7] > 100 µM | [8] > 100 µM | [9] > 100 µM | [10] > 100 µM | [11] > 100 µM | [12] > 100 µM | [13] > 100 µM | [14] > 100 µM | [15] > 100 µM | [16] > 100 µM | [17] > 100 µM | [18] > 100 µM

CC(C)CCCC(C)[C@H]1CC[C@H]2[C@@H]3CC[C@H]4C[C@@H](CCC=C(c5cc(Cl)c(O)c(C(=O)OC(C)(C)C)c5)c5cc(Cl)c(O)c(C(=O)OC(C)(C)C)c5)CC[C@]4(C)[C@H]3CC[C@]12C (some centres undefined)
inactive: [1] > 50 µM | [2] > 50 µM | [3] > 50 µM | [4] > 50 µM | [5] > 50 µM | [6] > 50 µM | [7] > 50 µM | [10] > 50 µM | [11] > 50 µM | [13] > 50 µM | [19] > 50 µM | [14] > 50 µM | [15] > 50 µM | [16] > 50 µM | [20] > 50 µM

CCN(CC)CCNCc1cc(Cl)cc2c1OCOC2
inactive: [1] > 10 µM | [2] > 10 µM | [3] > 10 µM | [4] > 10 µM | [5] > 10 µM | [6] > 10 µM | [7] > 10 µM | [8] > 10 µM | [9] > 10 µM | [10] > 10 µM | [11] > 10 µM | [12] > 10 µM | [13] > 10 µM | [19] > 10 µM | [14] > 10 µM | [15] > 10 µM | [16] > 10 µM | [20] > 10 µM | [18] > 10 µM

O=C1CSc2sc(=S)sc2S1
inactive: [2] > 100 µM | [3] > 100 µM | [4] > 100 µM | [5] > 29.2 µM | [6] > 100 µM | [7] 61.1 µM | [8] > 100 µM | [9] > 100 µM | [10] > 100 µM | [11] > 100 µM | [12] > 100 µM | [13] 43.1 µM | [19] > 24.5 µM | [14] > 100 µM | [15] > 100 µM | [16] > 100 µM | [17] > 100 µM | [20] > 100 µM | [18] > 100 µM

CN(C)c1ccc(/C=N/c2ccc(Oc3ccc(Cl)cc3)c(Cl)c2)cc1
inactive: [1] 21.3 µM | [2] 22.1 µM | [3] 17.5 µM | [4] 18.7 µM | [5] 16.1 µM | [6] 21.7 µM | [7] 17.9 µM | [8] 15.3 µM | [9] 21.6 µM | [10] 12.9 µM | [11] 28.3 µM | [12] 17.5 µM | [19] 24.7 µM | [14] 15 µM | [15] 30.3 µM | [16] 16.9 µM | [17] 19.8 µM | [20] 17.5 µM | [18] 10.7 µM

COc1ccc(CC/N=C2\CCC(C(=O)NCCc3ccc(OC)c(OC)c3)N2)cc1OC (centres undefined)
inactive: [1] > 100 µM | [2] > 100 µM | [3] > 100 µM | [4] > 100 µM | [5] > 100 µM | [6] > 100 µM | [7] > 100 µM | [8] > 100 µM | [9] > 100 µM | [10] > 100 µM | [11] > 100 µM | [12] > 100 µM | [19] > 100 µM | [14] > 100 µM | [15] > 100 µM | [16] > 100 µM | [17] > 100 µM | [20] > 100 µM | [18] > 100 µM

CN(C)C(=S)/N=c1\ss/c(=N\S(=O)(=O)c2ccccc2)n1-c1ccccc1
active: [5] 0.0522 µM | [9] 0.458 µM | [14] 0.0653 µM | [20] 0.297 µM
inactive: [1] > 100 µM | [3] 59.6 µM | [4] 22.9 µM | [6] 38 µM | [7] 4.06 µM | [8] 30.1 µM | [10] 6.4 µM | [11] > 100 µM | [12] 23.7 µM | [13] 57.5 µM | [19] 20.3 µM | [15] 9.95 µM | [16] 27 µM | [17] 16.9 µM | [18] 22 µM

CCn1cc(C(c2ccc(Cl)cc2)n2ccnc2)c2cc(Br)ccc21 (centres undefined)
inactive: [1] 13.7 µM | [2] 11.6 µM | [3] > 100 µM | [4] 14.4 µM | [5] 7.55 µM | [6] 9.31 µM | [7] 12.9 µM | [8] 17.7 µM | [9] 22.1 µM | [10] 10.3 µM | [11] 11.7 µM | [12] 10.8 µM | [13] 14.8 µM | [19] 10.8 µM | [14] 15.7 µM | [16] 14.7 µM | [17] 14.1 µM | [20] 10.9 µM | [18] 6.9 µM

Cc1nc(Nc2nc3ccccc3[nH]2)[nH]c(=O)c1CCO
inactive: [1] 53.5 µM | [2] > 59.8 µM | [3] > 100 µM | [4] > 100 µM | [5] > 100 µM | [6] 12.3 µM | [7] 44.8 µM | [8] 25.6 µM | [9] 26.6 µM | [10] > 100 µM | [11] > 86.9 µM | [12] > 53.2 µM | [13] 21.7 µM | [19] > 100 µM | [14] 70.3 µM | [15] 99.8 µM | [16] 59.8 µM | [17] 45.8 µM | [20] 68.9 µM | [18] 46.8 µM

CCC(=O)NC(OCC1(CC)COC1)(C(F)(F)F)C(F)(F)F
inactive: [3] > 100 µM | [4] > 100 µM | [5] > 100 µM | [7] > 100 µM | [8] > 100 µM | [9] > 100 µM | [10] > 100 µM | [11] > 100 µM | [13] 92.3 µM | [16] > 100 µM | [17] > 100 µM | [20] > 100 µM | [18] > 100 µM

COc1ccc2[nH]c(Cl)c(/C=C3/C(=O)Nc4cc(C)c(OC)cc43)c2c1
inactive: [1] 7.35 µM | [2] 2.02 µM | [3] 9.53 µM | [4] 5.48 µM | [5] 4.23 µM | [6] 4.31 µM | [7] 5.3 µM | [8] 5.82 µM | [10] 2.66 µM | [11] 6.93 µM | [12] 7.71 µM | [13] 11.1 µM | [19] 1.98 µM | [14] 2.25 µM | [15] 4.21 µM | [16] 4.88 µM | [17] 11.4 µM | [20] 3.55 µM | [18] 12.2 µM
